Patent US6121296A, “Transition-state inhibitors for nucleoside hydrolase and transferase reactions” (Albert Einstein College of Medicine of Yeshiva University, priority 1998, dated 2000)
Read-outs that look alike come from different tables or passages of the source.

Assays:
[1] = target: T1, IU-nucleoside hydrolase (Crithidia fasciculata, UniProt Q27546, P2A); assay: biochemical; format: biochemical, C. fasciculata; conditions: for inhibition pattern: minimum of four substrate and three inhibitor concentrations
T1 construct: contained the coding region for the enzyme; made in house; host or cells: E. coli BL21 (DE3)pLysS, pET3d plasmid
Excerpt: Enzymes. Inosine-uridine nucleoside hydrolase (IU-nucleoside hydrolase) was purified from extracts of E. coli strain BL21 (DE3)pLysS which contained the coding region for the enzyme isolated from C. fasciculata in a pET3d expression plasmid. The DNA coding for the enzyme was placed in the NcoI-BamHI site. This construct gives a Pro2Ala substitution which has no significant effect on the kinetic properties of the purified enzyme. The overexpressed enzyme was purified to apparent homogeneity as previously described (Gopaul, et al. (1996) Biochemistry 35, 5963-5970).
(§1) Enzyme Assays. Initial rate measurements were accomplished at 30° C. in reaction mixtures containing 50 mM potassium phosphate, pH 7.5, or 50 mM Hepes, pH 8.0, and nitrophenylribose or inosine as substrates (Mazella, et al. (1996) J. Am. Chem. Soc. 118, 2111-2112). At pH 7.5 the product p-nitrophenylate anion is present at a concentration which gives a millimolar extinction coefficient of 9.3 cm^-1 at 400 nm. Reaction mixtures with nitrophenylribose as substrate were initiated by the addition of enzyme, and product formation was monitored by continuous recording at 400 nm. With inosine as substrate, the conversion to hypoxanthine was monitored continuously at 280 nm (Parkin, et al. (1991) J. Biol. Chem. 266, 20658-20665). […] The remainder of the inhibitors were analyzed at one fixed substrate concentration and variable inhibitor concentrations. Inhibition constants for IAG-nucleoside hydrolase were established from full kinetic analysis with V and X as inhibitors. […] The remainder of the inhibition constants were characterized by titration of assay mixtures containing a fixed concentration of substrate with variable inhibitor concentrations. […] For Ki determination at a fixed substrate concentration, this approach assumes that substrate and inhibitor compete for the catalytic site.
Inhibitors. Iminoribitol inhibitor were synthesized and purified according to the methods of Furneaux, et al. (Tetrahedron (1997) in press), characterized by NMR, dissolved in H2 O and stored at -20° C. The compounds are enzymatically and chemically stable in H2 O and under conditions of the assay. IU-Nucleoside hydrolase is susceptible to slow-onset tight-binding inhibition under certain conditions (Horenstein & Schramm, (1993b) Biochemistry 32, 9917-9925, Boutellier, et al. (1994) Biochemistry, 33, 3994-4000). However, in the initial reaction rate conditions described here, only the rapidly reversible competition between substrate and inhibitor is being observed. Thus, the reported kinetic constants are dissociation constants which exclude slow-onset binding.

[2] = target: IAG-nucleoside hydrolase (Trypanosoma brucei, UniProt Q57ZL6); assay: Inhibition of IAG-nucleoside hydrolase, initial rates; conditions: for Km /Ki IAG-nucleoside hydrolase: comparison with inosine
Description: The enzyme was purified to apparent homogeneity as determined by denaturing polyacrylamide gel electrophoresis (Parkin, (1996) J. Biol. Chem. 271, 21713-21719). Some of the studies used the T. brucei brucei enzyme which was overexpressed in E. coli.
as §1, with “concentrations.” for “concentrations. Inhibition constants for IAG-nucleoside hydrolase were established from full kinetic analysis with V and X as inhibitors.”
Inhibitors. Iminoribitol inhibitor were synthesized and purified according to the methods of Furneaux, et al. (Tetrahedron (1997) in press), characterized by NMR, dissolved in H2 O and stored at -20° C.

[3] = target: T1, IU-nucleoside hydrolase; conditions: cited from earlier work
[4] = target: T2, nucleoside hydrolase (Crithidia fasciculata, UniProt Q27546); assay: Inhibition of nucleoside hydrolase, inosine hydrolysis monitored at 280 nm, bis-tris pH 7.3; format: biochemical
T2 construct: nucleoside hydrolase was purified from C. fasciculata as described above; endogenous in cells; host or cells: Crithidia fasciculata cells grown in a 300-liter fermenter
T2 sequence (Q27546 1-315): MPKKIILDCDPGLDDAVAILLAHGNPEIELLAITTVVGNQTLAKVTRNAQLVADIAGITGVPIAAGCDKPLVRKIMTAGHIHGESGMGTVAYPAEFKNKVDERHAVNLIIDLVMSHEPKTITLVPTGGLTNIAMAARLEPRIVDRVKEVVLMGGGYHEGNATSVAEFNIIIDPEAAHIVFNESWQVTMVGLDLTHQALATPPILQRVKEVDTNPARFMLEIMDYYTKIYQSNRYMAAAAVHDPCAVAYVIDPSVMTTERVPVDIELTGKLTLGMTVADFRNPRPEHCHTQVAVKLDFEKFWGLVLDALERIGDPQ
Description: All assays were performed at 30° C. in 50 mM bis-tris buffer at pH 7.3. The substrate for all assays was inosine. Inhibition studies were performed by examining the initial velocity of the hydrolysis of inosine as a function of inosine concentration and (2S)-phenyl-(3S,4R)-dihydroxy-(5R)-hydroxymethylpyrrolidine concentration. A total of 75 velocity measurements were made.
The general protocol for measurement was as follows: various concentrations of inosine and inhibitor in the above buffer were prepared, and 1.0 mL aliquots placed in a quartz cuvette and equilibrated at 30° C. […] The decrease in absorption at 280 nm was monitored over a 10 minute period.

[5] = substrate: OC[C@H]1O[C@@H](n2cnc3c(O)ncnc32)[C@H](O)[C@@H]1O; assay: purified protein, by the assay type; conditions: other: inosine as substrate; 30.0 °C
Description: The IAG-nucleoside hydrolase was purified from the blood-stream form of T. brucei brucei (ILTaT 1.1) grown in sublethally irradiated (650 rads) Sprague-Dawley rats. The enzyme was purified to apparent homogeneity as determined by denaturing polyacrylamide gel electrophoresis (Parkin, (1996) J. Biol. Chem. 271, 21713-21719). Some of the studies used the T. brucei brucei enzyme which was overexpressed in E. coli.
At pH 7.5 the product p-nitrophenylate anion is present at a concentration which gives a millimolar extinction coefficient of 9.3 cm^-1 at 400 nm. Reaction mixtures with nitrophenylribose as substrate were initiated by the addition of enzyme, and product formation was monitored by continuous recording at 400 nm. […] The remainder of the inhibitors were analyzed at one fixed substrate concentration and variable inhibitor concentrations. […] The remainder of the inhibition constants were characterized by titration of assay mixtures containing a fixed concentration of substrate with variable inhibitor concentrations. […] For Ki determination at a fixed substrate concentration, this approach assumes that substrate and inhibitor compete for the catalytic site. In these cases, data were fit to the equation: 1/v=1/kcat +(Km /kcat A)(1+I/Ki)
The compounds are enzymatically and chemically stable in H2 O and under conditions of the assay. […]

[6] = KI IU-nucleoside hydrolase, Table V

T1 sequence (Q27546 whole entry P2A): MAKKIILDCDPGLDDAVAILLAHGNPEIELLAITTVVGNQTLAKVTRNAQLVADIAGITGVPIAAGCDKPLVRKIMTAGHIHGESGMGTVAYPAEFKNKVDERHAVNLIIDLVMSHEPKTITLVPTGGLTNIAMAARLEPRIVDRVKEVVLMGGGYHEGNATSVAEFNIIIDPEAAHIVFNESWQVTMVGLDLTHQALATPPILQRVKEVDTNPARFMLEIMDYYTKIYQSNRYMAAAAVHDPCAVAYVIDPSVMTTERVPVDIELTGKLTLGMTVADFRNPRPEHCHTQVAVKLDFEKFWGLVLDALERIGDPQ

For `OC[C@H]1NC[C@H](O)[C@@H]1O` [I], the inhibition pattern [1] was “slope-linear competitive inhibitors”, the Ki [2] was 44 ± 4 µM and the “Km /KI IAG-nucleoside hydrolase” value [2] was 0.41. The Ki ([3]; Table V, from Horenstein and Schramm (1993b), read-out: KI IU-nucleoside hydrolase) was 4.5 ± 0.4 µM.

For `OC[C@H]1N[C@@H](c2ccccc2)[C@H](O)[C@@H]1O` [V, phenyliminoribitol], the inhibition pattern [1] was “slope-linear competitive inhibitors”, the Ki [2] was 180 µM and the “Km /KI IAG-nucleoside hydrolase” value [2] was 0.1. For the same molecule, the “Km /Ki IAG-nucleoside hydrolase” value ([2]; Table VI) was 0.1, the inhibition pattern ([2]; full kinetic analysis) was “competitive inhibition” and the Ki ([3]; read-out: KI IU-nucleoside hydrolase, from Horenstein and Schramm (1993b)) was 0.3 µM. The Ki ([3]; read-out: Ki IU-nucleoside hydrolase, Table VI, taken from Horenstein and Schramm (1993b)) was 0.3 µM.

In the case of `OC[C@H]1N[C@@H](c2ccccc2)[C@H](O)[C@@H]1O` [(2S)-phenyl-(3S,4R)-dihydroxy-(5R)-hydroxymethyl-pyrrolidine], the “binding better than the substrate inosine” value [4] is reported as “approximately 2,000 fold”, the inhibition pattern [4] is reported as “competitive inhibition pattern” and the Ki ([4]; read-out: inhibition constant) is reported as 0.15 µM.

With `OC[C@H]1N[C@@H](c2ccc(F)cc2)[C@H](O)[C@@H]1O` [VIII] the Ki [1, 6] was 0.057 ± 0.005 µM, the inhibition pattern [1] was “slope-linear competitive inhibitors” and the Ki [2] was 205 ± 14 µM. The “Km /KI IAG-nucleoside hydrolase” value [2] was 0.088.

In the case of `OC[C@H]1O[C@@H](c2ccccc2)[C@H](O)[C@@H]1O` [XIII, 1-deoxy-1-C-phenyl-β-D-ribofuranose, reference compound], the Ki ([1]; Ki IU-nucleoside hydrolase, Table VI, 58 μM nitrophenylriboside, 50 mM Hepes, pH 8.0) is reported as 600 µM, the Ki ([1]; inhibition constant IU-enzyme, text b399, unit inferred) is reported as 1600 µM and the Ki [2] is reported as > 30000 µM. The “decline of affinity relative to inosine” value [2] was > 1670 fold, the “binding / inhibition at 10 mM” value ([2]; 10 mM XIII) was “no binding can be detected” and the “Km /Ki IAG-nucleoside hydrolase” value ([2]; Table VI) was < 0.0006. The Ki ([2]; read-out: Ki IAG-nucleoside hydrolase, Table VI, XIII: 560 μM nitrophenylriboside, 50 mM Hepes, pH 8.0, lower limit) was > 30000 µM.

For `O=C(O)c1ccc([C@@H]2N[C@H](CO)[C@@H](O)[C@H]2O)cc1` [VI], the Ki [1, 6] was 0.096 ± 0.007 µM, the Ki [2] was > 480 µM and the “Km /KI IAG-nucleoside hydrolase” value [2] was < 0.04. For the same molecule, the “inhibition at highest concentration tested” value ([2]; 80, 120, 120 and 160 μM II, III, IV and VI respectively, 75 μM inosine) was “NO inhibition was observed”.

B1: IAG-nucleoside hydrolase (Trypanosoma brucei brucei TREU927) (protein)
chain: MAKTVILDHDGNKDDFVAMILLLSNPKKVNLIGCICTDADCFVENGFDVTGKIMCAMHRLIKTPLFPIGKSTATAVNAFPTEWRFSAKNLDDMPFLNIVEDVALWEKLKPENEAHNGQQLLADLVMKSKEKVTVCVTGPLSNMAWCIEKYGEAFTSKVEECVIMGGAVDVGGNVFLPTTDGSAEWNIYWDPPAAKKVLCCPNIRCVLFSLDATNTVPVRSVDVKGFGAQNQYLLSQMVGTMWAMSTHEEILRDGDAYYAWDALTAAYILEPTIATLEPVALDVDVSKGKSEGRTPRASGEGKPCVHVARNPSKQMFHDLVFASTRVC
With B1 the Km [5] was 18 ± 1 µM.
